For one experiment, the target named is T1, 5-lipoxygenase (Rattus norvegicus, UniProt P12527).
T1 construct: The supernatant is employed as an enzyme solution of a 5-lipoxygenase; endogenous in cells; host or cells: RBL-1 rat basophilic leukemia cells (supernatant of sonicated cells)
T1 sequence (P12527 1-673): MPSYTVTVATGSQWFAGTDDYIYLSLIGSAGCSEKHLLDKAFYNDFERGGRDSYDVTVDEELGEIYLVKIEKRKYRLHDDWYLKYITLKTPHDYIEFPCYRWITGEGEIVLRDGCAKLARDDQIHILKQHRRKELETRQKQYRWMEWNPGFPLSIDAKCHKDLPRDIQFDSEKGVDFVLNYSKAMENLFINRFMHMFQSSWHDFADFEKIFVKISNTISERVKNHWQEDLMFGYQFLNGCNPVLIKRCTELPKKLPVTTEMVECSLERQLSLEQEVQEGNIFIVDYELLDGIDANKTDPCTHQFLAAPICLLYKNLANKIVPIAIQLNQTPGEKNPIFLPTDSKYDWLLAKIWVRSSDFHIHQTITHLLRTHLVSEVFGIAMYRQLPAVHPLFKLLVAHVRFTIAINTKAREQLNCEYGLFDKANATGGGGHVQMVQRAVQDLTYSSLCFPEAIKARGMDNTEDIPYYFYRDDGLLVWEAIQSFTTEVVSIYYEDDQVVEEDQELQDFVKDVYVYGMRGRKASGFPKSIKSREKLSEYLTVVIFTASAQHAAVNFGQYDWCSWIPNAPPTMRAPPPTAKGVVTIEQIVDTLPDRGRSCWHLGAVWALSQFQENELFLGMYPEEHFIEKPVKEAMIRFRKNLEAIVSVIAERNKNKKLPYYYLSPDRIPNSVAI
Put plainly: 5-Lipoxygenase-inhibiting activity. The class given is biochemical. To be noted: RBL-1 cell supernatant; arachidonic acid 50 μg; 37° C., 15 min; 5-HETE by HPLC; read-out: 5-Lipoxygenase inhibiting activity, 50% Inhibition conc. The method, then:
A suspension of rat-origin basophilic leukemia cell strain RBL-1 in an Eagle basal medium (manufactured by Gibco Laboratories) containing 10% FCS is cultivated in a 5% CO2 incubator at 37° C. The culture is then centrifuged at 4° C. to collect cells. The cells are re-suspended in a phosphate buffer solution at pH 7.4 to a cell density of 1.0×10^7 -3.0×10^7 cells/ml. The suspended cells are treated by an ultrasonic cell blender and then centrifuged at 15,000 rpm at 4° C. for 30 min. The supernatant is employed as an enzyme solution of a 5-lipoxygenase. In test tubes are placed 50 μg of arachidonic acid and a phenol derivative of the invention to be tested. To each of the test tubes are added 0.30 ml of phosphate buffer, 0.20 ml of the enzyme solution as prepared above and 5 μl of a 100 mM CaCl2 (calcium chloride) solution. The mixture is allowed to react at 37° C. for 15 min. To the reaction mixture, after ice-cooling, is added one drop of 1N HCl (hydrochloric acid), and the resulting mass is extracted with 2 ml of ethyl acetate. The extract is concentrated to dryness followed by the addition of 100 μl of methanol for use as a test specimen.
Said specimen is injected into octadecylsilane (ODS) reverse phase high performance liquid chromatography (HPLC), eluted with methanol - acetonitrile - water - acetic acid (15:45:35:0.01). Peak for 5-HETE (5-(s)-hydroxy-6,8,11,14-eicosatetraenoic acid), a 5-lipoxygenase product detected in approximately 25 min. is measured. The 5-lipoxygenase-inhibiting activity is determined by decrease in the peak for said 5-lipoxygenase product.
50% inhibitory concentration as referred to in the table means concentration of a phenol derivative required for controlling the production of […] as described above to 50% by introducing said phenol derivative when production of 5-HETE without phenol derivative of the invention is taken as 100%.

The subject of experiment [1] is ethanol hydrochloric acid ulcer. The experiment in a line: Inhibitory activity against ethanol hydrochloric acid ulcer. The class given is in vivo. To be noted: SD male rats, 30 mg/kg orally, 1 hour before 150 mM HCl in 60% ethanol. The method, then:
To SD male rats (weighing 150-250 g) fasted for 24 hours was administered orally a phenol derivative of the invention at a dose of 30 mg/kg bodyweight. One hour later, a hydrochloric acid solution in ethanol (containing 150 mM hydrochloric acid in 60% ethanol) was orally given in a volume of 0.5 ml/100 g bodyweight.
One hour later, the animals were sacrificed with ether. The stomach was excised and, after formalin treatment, measured for the length (mm) of lesions developed in glandular portions of the stomach. Total length of the lesions per animal was taken as ulcer index.
Percent inhibition of ulceration as referred to in the table is a value obtained by reducing from 1 the ulcer index for the rat with a phenol derivative of the invention orally given divided by the ulcer index for the orally nonadministered rat and multiplying the value by 100. The calculation is conducted by the formula shown below. [formula]

The next experiment has as its target T2, histamine H2 receptors (Cavia porcellus, UniProt P47747).
T2 construct: Excised right atrium of Hartley male guinea pigs; from tissue; host or cells: isolated right atrium of male Hartley guinea pigs
Put plainly: Antagonistic action against histamine H2 receptors (isolated right atrium). Set-up: species or system Hartley male guinea pigs. Particulars: guinea pig isolated right atrium, 30° C.; concentration for two-fold shift of the histamine dose-response curve; read-out: Antagonistic action against histamine H2 receptors, pA2 (converted). The procedure:
Excised right atrium of Hartley male guinea pigs (weighing 450-550 g) was used. Thus, the guinea pig was fainted by strongly hitting the occipital region, and then the chest opened to isolate the heart. The isolated heart was immersed in a Krebs-Henseleit nutrient solution at 30° C. which had sufficiently been aerated with 95% O2 +5% CO2. The right atrium with the right cardiac auricle attached thereto was separated carefully enough to avoid damages. Blood vessels and tissues attached around the separated organ were removed. Both ends of the separated right cardiac auricle were held with threaded Serfin, and the thread at one end was fixed in a tissue tank filled with the nutrient solution, and the thread at the other end connected to a tension measuring and recording instrument and loaded with 1-g weight. The nutrient solution in the tissue tank was maintained at a temperature of 30° C. and consistently aerated with a 95% O2 +5% CO2 gas. The nutrient solution was exchanged every 5-10 min.
After spontaneous contractions of the isolated right atrium specimen were stabilized, and the heart rate became constant, histamine was cumulatively introduced into the tissue tank. Thus, histamine was introduced cumulatively starting at 10^-7 M and gradually at 3×10^-7 M, 10^-6 M, […], and so on. When the heart rate became constant at a given concentration, the concentration was further increased, and the cumulative introduction of histamine was continued until the heart rate no more increased. There was then determined a histamine dose-response curve.
Antagonistic action of the phenol derivatives of the invention against histamine H2 receptors was tested using the isolated right atrium specimen previously employed for determining a histamine dose-response curve. Thus, said specimen with the increased heart rate by the cumulative introduction of histamine was repeatedly washed with a nutrient solution to remove the histamine. When the heart rate was decreased by the histamine removal to a constant level, a phenol derivative of the invention was introduced into the tissue tank. After the introduction of said phenol derivative, histamine was cumulatively introduced sufficiently to determine a histamine dose-response curve in the presence of said phenol derivative. Antagonistic action of the phenol derivatives of the invention is determined by measuring the distance (mm) at 50% reaction between the dose-response curve in the absence of said phenol derivative and one in the presence of said phenol derivative and calculating pA2 on the basis of the distance from the Van Rossum simplified table.
Note that the pA2 in the table means a -log value of the concentration of a phenol derivative of the invention necessary for parallel displacement of the histamine dose-response curve to the side of a twice increase in concentration.

T2 sequence (P47747 whole entry): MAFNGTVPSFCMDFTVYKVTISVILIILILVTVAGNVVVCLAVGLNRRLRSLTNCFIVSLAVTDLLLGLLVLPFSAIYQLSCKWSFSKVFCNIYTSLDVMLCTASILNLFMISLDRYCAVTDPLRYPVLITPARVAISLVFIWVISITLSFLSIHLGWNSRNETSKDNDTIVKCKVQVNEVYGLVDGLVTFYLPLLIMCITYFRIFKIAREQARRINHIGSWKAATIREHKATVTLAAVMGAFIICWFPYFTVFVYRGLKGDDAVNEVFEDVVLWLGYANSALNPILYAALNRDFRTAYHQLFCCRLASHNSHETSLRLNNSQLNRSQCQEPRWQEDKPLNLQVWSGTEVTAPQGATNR

Regarding `COc1cc(CCCCC(=O)NCCCOc2cccc(CN3CCCCC3)c2)ccc1O` [Example 1, N-[3-(3(1-piperidinylmethyl)phenoxy)propyl]-5-(4-hydroxy-3methoxyphenyl)pentylamide], the IC50 on 5-lipoxygenase is 6.1 µM. In experiment [1], the “Inhibitory activity against ethanol hydrochloric acid ulcer, Percent inhibition of ulceration” value is listed as 89.5%. In addition, the Kb on histamine H2 receptors was 0.0575 µM.
On the same counts, the results for `O=C(CCCCc1ccc(O)cc1)NCCCOc1cccc(CN2CCCCC2)c1` [Example 2, N-[3-(3-(1piperidinylmethyl)phenoxy)propyl]-5-(4-hydroxyphenyl)-pentylamide] are 120 µM, 33.4% and 0.316 µM.
For the compound `CC(C)(C)c1cc(CCCCC(=O)NCCCOc2cccc(CN3CCCCC3)c2)cc(C(C)(C)C)c1O` [Example 3, N-[3-(3-(1-piperidinylmethyl)phenoxy)propyl]-5-(3,5-di-tert-butyl-4-hydroxyphenyl)pentylamide], the IC50 on 5-lipoxygenase is 20 µM. The “Inhibitory activity against ethanol hydrochloric acid ulcer, Percent inhibition of ulceration” value in experiment [1] is listed as 42.9%. Also, the Kb at histamine H2 receptors is 2.57 µM.
On to `COc1cc(CCCCC(=O)NCCCOc2cccc(CN3CCCCC3)c2)cc(OC)c1O` [Example 4, N-[3-(3-(1-piperidinylmethyl)phenoxy)propyl]-5-(4-hydroxy-3,5-dimethoxyphenyl)pentylamide], for which, at 5-lipoxygenase, the IC50 was determined as 13 µM. The “Inhibitory activity against ethanol hydrochloric acid ulcer, Percent inhibition of ulceration” value in experiment [1] is 62.5%. Also, at histamine H2 receptors, the Kb is 0.49 µM.
As to `COc1cc(CCC(=O)NCCCOc2cccc(CN3CCCCC3)c2)ccc1O` [Example 5, N-[3-(3-(1-piperidinylmethyl)phenoxy)propyl]-3-(4-hydroxy-3-methoxyphenyl)propylamide], the IC50 at 5-lipoxygenase was 32 µM. The “Inhibitory activity against ethanol hydrochloric acid ulcer, Percent inhibition of ulceration” value in experiment [1] amounted to 48.0%. In addition, at histamine H2 receptors, the Kb was 0.631 µM.
In the case of `COc1cc(CCCC(=O)NCCCOc2cccc(CN3CCCCC3)c2)ccc1O` [Example 6, N-[3-(3-(1-piperidinylmethyl)phenoxy)propyl]-4-(4-hydroxy-3-methoxyphenyl)butylamide], the IC50 on 5-lipoxygenase was determined as 8.9 µM. In addition, the “Inhibitory activity against ethanol hydrochloric acid ulcer, Percent inhibition of ulceration” value in experiment [1] is listed as 76.5%. Further, the Kb on histamine H2 receptors is 0.0501 µM.
For `O=C(CCCCc1ccc(O)c(O)c1)NCCCOc1cccc(CN2CCCCC2)c1` [Example 7, N-[3-(3-(1piperidinylmethyl)phenoxy)propyl]-5-(3,4dihydroxyphenyl)pentylamide], on 5-lipoxygenase, the IC50 was 5.9 µM. Moreover, the “Inhibitory activity against ethanol hydrochloric acid ulcer, Percent inhibition of ulceration” value in experiment [1] was determined as 83.7%. On histamine H2 receptors, the Kb is 0.141 µM.

For the origin of these results see patent US5037837A, “Phenoxypropylamine derivatives or salts thereof and antiulcer agents containing the same” (Terumo Kabushiki Kaisha, priority 1989, dated 1991).
